From patent US10358435B2, “Triazolyl pyrimidinone compounds as PDE2 inhibitors” (Merck Sharp & Dohme Corp., priority 2015, dated 2019)

biological target: human PDE2A1 (Homo sapiens (Human), UniProt O00408); test: IMAP fluorescence polarization assay, human PDE2A1 (PDE selectivity panel); assay type: biochemical; conditions: not given
Procedure: The activity of the compounds in accordance with the present invention as PDE2 inhibitors may be readily determined using a fluorescence polarization (FP) methodology (Huang, W., et al., J. Biomol Screen, 2002, 7: 215).
Dose-inhibition profiles for each compound were characterized by fitting the mP data to a four-parameter equation given below.
Selectivity for PDE2, as compared to other PDE families, was assessed using the IMAP® technology. Human PDE10A2 enzyme was prepared from cytosolic fractions of transiently transfected HEK cells. All other PDE's were GST Tag human enzyme expressed in insect cells and were obtained from BPS Bioscience (San Diego, Calif.): PDE1A (Cat#60010), human PDE2A1 (Cat#60020), PDE3A (Cat#60030), PDE4A1A (Cat#60040), PDE5A1 (Cat#60050), PDE6C (Cat#60060), PDE7A (Cat#60070), PDE8A1 (Cat#60080), PDE9A2 (Cat#60090), PDE11A4 (Cat#60110).
Assays for PDE 1 through 11 were performed in parallel at room temperature in 384-well microtiter plates with an incubation volume of 20.2 μL. Solutions of test compounds were prepared in DMSO and serially diluted with DMSO to yield 30 μL of each of ten solutions differing by 3-fold in concentration, at 32 serial dilutions per plate. […] A Labcyte POD 810 (Labcyte, Sunnyvale, Calif.) was used to dispense 200 nL from each well of the titration plate to make eleven copies of the assay plate for each titration, one copy for each PDE enzyme. A solution of each enzyme (dilution from aliquots, sufficient to produce 20% substrate conversion) and a separate solution of FAM-labeled cAMP or FAM-labeled cGMP from Molecular Devices (Sunnyvale, Calif., product # R7506 or cGMP#R7508), at a final concentration of 50 nM were made in the assay buffer (10 mM Tris HCl, pH 7.2, 10 mM MgCl2, 0.05% NaN3 0.01% Tween-20, and 1 mM DTT). Note that the substrate for PDE2 is 50 nM FAM cAMP containing 1000 nM of cGMP. The enzyme and the substrate were then added to the assay plates in two consecutive additions of 10 μL and then shaken to mix. The reaction was allowed to proceed at room temperature for 60 minutes. A binding solution was then made from the kit components, comprised of 80% Solution A, 20% Solution B and binding reagent at a volume of 1/600 the total binding solution. The enzymatic reaction was stopped by addition of 60 μL of the binding solution to each well of the assay plate. The plates were sealed and shaken for 10 seconds. The plates were incubated at room temperature for one hour, then the parallel and perpendicular fluorescence was measured using a Tecan Genios Pro plate reader (Tecan, Switzerland). The apparent inhibition constants for the compounds against all 11 PDE's was determined from the parallel and perpendicular fluorescent readings as described for PDE10 FP assay using the following apparent KM values for each enzyme and substrate combination: PDE1A (FAM cGMP) 70 nM, human PDE2A1 (FAM cAMP) 10,000 nM, PDE3A (FAM cAMP) 50 nM, PDE4A1A (FAM cAMP) 1500 nM, PDE5A1 (FAM cGMP) 400 nM, PDE6C (FAM cGMP) 700 nM, PDE7A (FAM cAMP) 150 nM, PDE8A1 (FAM cAMP) 50 nM, PDE9A2 (FAM cGMP) 60 nM, PDE10A2 (FAM cAMP) 150 nM, PDE11A4 (FAM cAMP) 1000 nM. The intrinsic PDE2 inhibitory activity of a compound which may be used in accordance with the present invention may be determined by these assays.

Sequence of human PDE2A1 (O00408 other isoform, or with tags, fused parts or gaps): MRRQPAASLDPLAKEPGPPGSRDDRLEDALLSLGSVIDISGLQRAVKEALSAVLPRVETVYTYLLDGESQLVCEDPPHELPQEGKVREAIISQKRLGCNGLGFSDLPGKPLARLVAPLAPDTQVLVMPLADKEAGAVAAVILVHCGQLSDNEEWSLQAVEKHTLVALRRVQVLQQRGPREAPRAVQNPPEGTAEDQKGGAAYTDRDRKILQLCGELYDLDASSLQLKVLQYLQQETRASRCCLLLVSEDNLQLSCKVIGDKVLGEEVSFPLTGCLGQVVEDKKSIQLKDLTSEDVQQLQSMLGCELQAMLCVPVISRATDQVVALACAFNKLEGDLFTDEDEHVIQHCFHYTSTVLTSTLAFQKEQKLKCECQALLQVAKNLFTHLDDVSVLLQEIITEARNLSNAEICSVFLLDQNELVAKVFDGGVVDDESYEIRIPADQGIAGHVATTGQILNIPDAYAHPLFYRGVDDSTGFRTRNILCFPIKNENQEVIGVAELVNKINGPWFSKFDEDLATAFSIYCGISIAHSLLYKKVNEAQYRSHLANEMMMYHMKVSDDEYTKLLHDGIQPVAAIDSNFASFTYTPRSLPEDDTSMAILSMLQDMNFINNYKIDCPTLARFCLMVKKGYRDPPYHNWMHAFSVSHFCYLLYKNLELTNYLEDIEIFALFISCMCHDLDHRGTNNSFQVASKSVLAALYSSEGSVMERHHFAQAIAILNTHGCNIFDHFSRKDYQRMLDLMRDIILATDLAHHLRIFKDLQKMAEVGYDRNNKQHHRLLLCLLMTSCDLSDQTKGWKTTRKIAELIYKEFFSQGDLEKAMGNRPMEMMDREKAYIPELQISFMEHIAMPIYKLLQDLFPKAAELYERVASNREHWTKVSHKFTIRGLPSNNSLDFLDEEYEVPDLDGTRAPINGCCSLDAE

**Q.** How did the inhibition at 3 µM turn out when `Cc1nc(-c2nnn3c2CCCC3c2ccc(C(F)(F)F)cc2F)cc(=O)[nH]1` (single isomer, unassigned) [Example 49, (R)- or (S)-6-(7-(2-fluoro-4-(trifluoromethyl)phenyl)-4,5,6,7-tetrahydro-[1,2,3]triazolo[1,5-a]pyridin-3-yl)-2-methylpyrimidin-4(3H)-one] was run?
**A.** 33%

**Q.** With `Cc1nc(-c2nnc(C(C)c3ccc(C(F)(F)F)cc3F)n2C)cc(=O)[nH]1` (single isomer, unassigned) [Example 63, (R)- or (S)-6-(5-(1-(2-fluoro-4-(trifluoromethyl)-phenyl)ethyl)-4-methyl-4H-1,2,4-triazol-3-yl)-2-methylpyrimidin-4(3H)-one] as the compound, how does the inhibition at 3 µM read?
**A.** 16%

same assay, conditions: FAM cAMP 50 nM with 1000 nM cGMP

**Q.** How did the Ki turn out when `Cc1nc(-c2nnn3c2CCCC3(C)c2ccc(C(F)(F)F)cc2F)cc(=O)[nH]1` (single isomer, unassigned) [Example 58, (R)- or (S)-6-(7-(2-fluoro-4-(trifluoromethyl)phenyl)-7-methyl-4,5,6,7-tetrahydro-[1,2,3]triazolo[1,5-a]pyridin-3-yl)-2-methylpyrimidin-4(3H)-one] was run?
**A.** 1.3 nM

**Q.** How did the Ki turn out when `Cc1nc(-n2cnc([C@H](C)c3ccc(C(F)(F)F)cc3F)n2)cc(=O)[nH]1` (single isomer, unassigned) [Example 84] was run?
**A.** 224 nM

**Q.** For `Cc1nc(-c2nnn3c2CCC3(C)c2ccc(C(F)(F)F)cc2F)cc(=O)[nH]1` (single isomer, unassigned) [Example 98, (S)- or (R)-6-(6-(2-Fluoro-4-(trifluoromethyl)phenyl)-6-methyl-5,6-dihydro-4H-pyrolo[1,2-c][1,2,3]triazol-3-yl)-2-methylpyrimidin-4(3H)-one], which Ki is on record?
**A.** 218 nM

**Q.** For `Cc1nc(-c2nnc(C(C)c3ccc(C(F)(F)F)cc3Cl)[nH]2)cc(=O)[nH]1` (single isomer, unassigned) [Example 66, (S)- or (R)-6-(5-(1-(2-chloro-4-(trifluoromethyl)-phenyl)ethyl)-4H-1,2,4-triazol-3-yl)-2-methylpyrimidin-4(3H)-one], which Ki is on record?
**A.** 525 nM

**Q.** How did the Ki turn out when `Cc1nc(-c2cn(C(c3ccc(C(F)(F)F)cc3F)C(C)C)nn2)cc(=O)[nH]1` (single isomer, unassigned) [Example 40, (S)- or (R)-6-(1-(1-(2-fluoro-4-(trifluoromethyl)phenyl)-2-methylpropyl)-1H-1,2,3-triazol-4-yl)-2-methylpyrimidin-4(3H)-one] was run?
**A.** 22.6 nM

**Q.** `Cc1nc(-c2nnn3c2CCC[C@H]3c2ccc(C(F)(F)F)cc2)cc(=O)[nH]1` (single isomer, unassigned) [Example 48] was tested. Which Ki did it give?
**A.** 42.4 nM

**Q.** For `Cc1nc(-c2nnn3c2CCC[C@]3(C)c2ccc(OC(F)(F)F)cc2)cc(=O)[nH]1` (single isomer, unassigned) [Example 77], which Ki is on record?
**A.** 2800 nM

**Q.** How did the Ki turn out when `Cc1nc(-c2nnn3c2CCCCC3c2ccc(C(F)(F)F)cc2)cc(=O)[nH]1` (single isomer, unassigned) [Example 51, (R)- or (S)-2-methyl-6-(8-(4-(trifluoromethyl)phenyl)-5,6,7,8-tetrahydro-4H-[1,2,3]triazolo[1,5-a]azepin-3-yl)pyrimidin-4(3H)-one] was run?
**A.** 79.9 nM

**Q.** With `Cc1nc(-c2nnn([C@H](C)c3ccc(C(F)(F)F)cc3Cl)c2C)cc(=O)[nH]1` (single isomer, unassigned) [Example 43] as the compound, how does the Ki read?
**A.** 4.6 nM

**Q.** For `Cc1nc(-c2cn(C(C)c3cc(F)c(C(F)(F)F)cc3F)nn2)cc(=O)[nH]1` (single isomer, unassigned) [Example 23, (R)- or (S)-6-(1-(1-(2,5-difluoro-4-(triufluoromethyl)phenyl)ethyl)-1H-1,2,3-triazol-4-yl)-2-methylpyrimidin-4(3H)-one], which Ki is on record?
**A.** 203 nM

**Q.** For `CCc1ccc([C@]2(C)CCCc3c(-c4cc(=O)[nH]c(C)n4)nnn32)c(F)c1` (single isomer, unassigned) [Example 95], which Ki is on record?
**A.** 1.8 nM

**Q.** With `Cc1nc(-c2ncn(C(C)c3ccc(C(F)(F)F)cc3F)n2)cc(=O)[nH]1` (stereo not shown) [Example 86, 6-(1-(1-(2-Fluoro-4-(trifluoromethyl)phenyl)ethyl)-1H-1,2,4-triazol-3-yl)-2-methylpyrimidin-4(3H)-one] as the compound, how does the Ki read?
**A.** 167 nM

**Q.** With `Cc1nc(-c2cn(C(C)(C)c3ccc(C(F)(F)F)cc3Cl)nn2)cc(=O)[nH]1` [Example 30, 6-(1-(2-(2-chloro-4-(trifluoromethyl)phenyl)propan-2-yl)-1H-1,2,3-triazol-4-yl)-2-methylpyrimidin-4(3H)-one] as the compound, how does the Ki read?
**A.** 1.7 nM

**Q.** With `Cc1nc(-c2nnn3c2CCC[C@]3(C)c2ccc(C(F)(F)F)cc2C)cc(=O)[nH]1` (single isomer, unassigned) [Example 79] as the compound, how does the Ki read?
**A.** 8.3 nM

**Q.** For `Cc1nc(-c2nnc(C(C)(C)c3ccc(C(F)(F)F)cc3F)n2C)cc(=O)[nH]1` [Example 69, 6-(5-(2-(2-Fluoro-4-(trifluoromethyl)phenyl)propan-2-yl)-4-methyl-4H-1,2,4-triazol-3-yl)-2-methylpyrimidin-4(3H)-one], which Ki is on record?
**A.** 1130 nM

**Q.** `CCCCc1c(-c2cc(=O)[nH]c(C)n2)nnn1C(C)c1ccc(C(F)(F)F)cc1Cl` (single isomer, unassigned) [Example 45, (R)- or (S)-6-(5-butyl-1-(1-(2-chloro-4-(trifluoromethyl)phenyl)ethyl)-1H-1,2,3-triazol-4-yl)-2-methylpyrimidin-4(3H)-one] was tested. Which Ki did it give?
**A.** 9.2 nM

**Q.** With `Cc1nc(-c2cn(C(C)c3ccc(C(F)(F)F)cc3F)nn2)cc(=O)[nH]1` (single isomer, unassigned) [Example 27, (R)- or (S)-6-(1-(1-(2-fluoro-4-(trifluoromethyl)phenyl)ethyl)-1H-1,2,3-triazol-4-yl)-2-methylpyrimidin-4(3H)-one] as the compound, how does the Ki read?
**A.** 46.6 nM

**Q.** With `Cc1nc(-c2nnn3c2CCCC3(C)c2ccc(C(F)(F)F)cc2F)cc(=O)[nH]1` (single isomer, unassigned) [Example 59, (S)- or (R)-6-(7-(2-fluoro-4-(trifluoromethyl)phenyl)-7-methyl-4,5,6,7-tetrahydro-[1,2,3]triazolo[1,5-a]pyridin-3-yl)-2-methylpyrimidin-4(3H)-one] as the compound, how does the Ki read?
**A.** 178 nM

**Q.** Which Ki does the source give for `Cc1nc(-c2nnn3c2CCC[C@]3(C)c2ccc(OC(F)(F)F)cc2)cc(=O)[nH]1` (single isomer, unassigned) [Example 76] here?
**A.** 182 nM

**Q.** With `CCC1(c2ccc(C(F)(F)F)cc2)CCCc2c(-c3cc(=O)[nH]c(C)n3)nnn21` (single isomer, unassigned) [Example 57, (S)- or (R)-6-(7-ethyl-7-(4-(trifluoromethyl)phenyl)-4,5,6,7-tetrahydro-[1,2,3]triazolo[1,5-a]pyridin-3-yl)-2-methylpyrimidin-4(3H)-one] as the compound, how does the Ki read?
**A.** 29 nM

**Q.** For `Cc1nc(-n2cnc([C@H](C)c3ccc(C(F)(F)F)cc3F)n2)cc(=O)[nH]1` (single isomer, unassigned) [Example 85], which Ki is on record?
**A.** 1200 nM

**Q.** How did the Ki turn out when `Cc1nc(-c2cn(C(C)(C)c3ccc(C(F)(F)F)cc3C)nn2)cc(=O)[nH]1` [Example 31, 2-methyl-6-(1-(2-(2-methyl-4-(trifluoromethyl)phenyl)propan-2-yl)-1H-1,2,3-triazol-4-yl) pyrimidin-4(3H)-one] was run?
**A.** 5.4 nM

**Q.** `Cc1nc(-c2cnn(C(C)c3ccc(C(F)(F)F)cc3F)n2)cc(=O)[nH]1` (single isomer, unassigned) [Example 3, (R)- or (S)-6-(2-(1-(2-fluoro-4-(trifluoromethyl)phenyl)ethyl)-2H-1,2,3-triazol-4-yl)-2-metylpyrimidin-4(3H)-one] was tested. Which Ki did it give?
**A.** 112 nM
